Laboratory results as given in ChEMBL document CHEMBL1201862, “PubChem BioAssay data set” (2004).
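Following 48 hours of exposure in 96-well plates, responses at five concentrations were used to interpolate endpoints linearly. GI50 = concentration required for 50% inhibition of growth.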 Calls of active or inactive are those of the source. Cut-off read from the data, not from the text of the source: active = GI50 up to about 1.1 µM and inactive = higher.

Key:
Assay in all cases: growth of human tumour cells (NCI), 48 h
HT-29 = test system: HT-29
MOLT-4 = test system: MOLT-4
HCT-15 = test system: HCT-15
UACC-257 = test system: UACC-257
CCRF-CEM = test system: CCRF-CEM
EKVX = test system: EKVX
UO-31 = test system: UO-31
SNB-19 = test system: SNB-19
TK-10 = test system: TK-10
SF-295 = test system: SF-295
SK-MEL-28 = test system: SK-MEL-28
LOX IMVI = test system: LOX IMVI
ACHN = test system: ACHN
U-251 = test system: U-251
M14 = test system: M14
CAKI-1 = test system: CAKI-1
PC-3 = test system: PC-3

SMILES	GI50 (HT-29)	GI50 (MOLT-4)	GI50 (HCT-15) [µM]	GI50 (UACC-257)	GI50 (CCRF-CEM)	GI50 (EKVX)	GI50 (UO-31)	GI50 (SNB-19)	GI50 (TK-10)	GI50 (SF-295)	GI50 (SK-MEL-28)	GI50 (LOX IMVI)	GI50 (ACHN)	GI50 (U-251)	GI50 (M14)	GI50 (CAKI-1)	GI50 (PC-3)
CCN(CC)c1ccc(C(=O)c2ccccc2C(=O)O)c(O)c1	> 100 µM (inactive)	> 100 µM (inactive)	> 100	> 100 µM (inactive)	> 100 µM (inactive)	> 100 µM (inactive)	> 100 µM (inactive)	> 100 µM (inactive)	> 100 µM (inactive)	> 100 µM (inactive)	> 100 µM (inactive)	> 100 µM (inactive)	> 100 µM (inactive)	> 100 µM (inactive)	> 100 µM (inactive)	> 100 µM (inactive)	
CC(=O)Nc1ccc2nc(-c3ccccn3)c(-c3ccccn3)nc2c1		> 100 µM (inactive)	> 100	> 100 µM (inactive)	> 100 µM (inactive)	> 100 µM (inactive)	> 100 µM (inactive)	> 100 µM (inactive)	> 100 µM (inactive)	> 100 µM (inactive)	> 100 µM (inactive)	> 100 µM (inactive)	> 100 µM (inactive)	> 100 µM (inactive)	> 100 µM (inactive)	> 100 µM (inactive)	> 100 µM (inactive)
CC(C)OC(=O)C1=C2c3ncccc3C(=O)N2[C@@H](Cl)[C@H](Cl)[C@H]1Cl	> 100 µM (inactive)	22.5 µM (inactive)	70.3	34 µM (inactive)		> 100 µM (inactive)	> 100 µM (inactive)	> 100 µM (inactive)	> 100 µM (inactive)	> 100 µM (inactive)	> 100 µM (inactive)	68.9 µM (inactive)	> 100 µM (inactive)	56.8 µM (inactive)	> 100 µM (inactive)	> 100 µM (inactive)	56.6 µM (inactive)
CC(C)CCn1nc(N)c2nc3ccccc3nc21	64.7 µM (inactive)	26.3 µM (inactive)	> 10	> 100 µM (inactive)	46.2 µM (inactive)	> 100 µM (inactive)	> 100 µM (inactive)	> 100 µM (inactive)	> 100 µM (inactive)	> 100 µM (inactive)	> 100 µM (inactive)	> 100 µM (inactive)	41.3 µM (inactive)	> 100 µM (inactive)	> 100 µM (inactive)	64.4 µM (inactive)	> 100 µM (inactive)
O=[N+]([O-])c1ccc2c(c1)Sc1ccccc1N2CCCCCl	> 100 µM (inactive)	87.9 µM (inactive)	> 100	> 100 µM (inactive)	> 100 µM (inactive)	> 100 µM (inactive)	> 100 µM (inactive)	> 100 µM (inactive)	> 100 µM (inactive)	> 100 µM (inactive)	> 100 µM (inactive)	> 100 µM (inactive)	> 100 µM (inactive)	> 100 µM (inactive)		> 100 µM (inactive)	> 100 µM (inactive)
CCCCCCCCCCCCCCCCOCC(CC(F)(F)P(=O)(OCC)OCC)OC(C)=O (stereo not given)	14.9 µM (inactive)	28.1 µM (inactive)	5.94	17.5 µM (inactive)		21.7 µM (inactive)	16 µM (inactive)	3.21 µM (inactive)	14 µM (inactive)	11.6 µM (inactive)	17.8 µM (inactive)		13.9 µM (inactive)	2.72 µM (inactive)	17.9 µM (inactive)	16.6 µM (inactive)	13.8 µM (inactive)
CCOC(=O)/C(C#N)=C/Nc1c(C)n(C)n(-c2ccccc2)c1=O		> 100 µM (inactive)	> 100	> 100 µM (inactive)	> 100 µM (inactive)	> 100 µM (inactive)	> 100 µM (inactive)		> 100 µM (inactive)	> 100 µM (inactive)		> 100 µM (inactive)	> 100 µM (inactive)	> 100 µM (inactive)	> 100 µM (inactive)	> 100 µM (inactive)	> 100 µM (inactive)
